These results are taken from patent US20220142995A1, “DUAL ATM AND DNA-PK INHIBITORS FOR USE IN ANTI-TUMOR THERAPY” (XRAD Therapeutics, Inc., priority 2019, published 2022).

The subject of the assay is ATM and DNA-PK kinases. The experiment in a line: Immunoblot of radiation-induced phosphorylation of ATM, DNA-PKcs and KAP1 in MCF7 cells. In kind it is cell-based, human. Particulars: MCF7 cells, 20, 100, 500, 1000 nM, 30 min pre-treatment, 10 Gy, harvested 1 h later. On the procedure:
Cell Culture. The MCF-7 human breast carcinoma cell line and HCT116 p53 wild-type and HCT116 p53−/− cell lines were obtained from ATCC. […]
Immunoblotting. […] One hour after IR, cells were lysed in RIPA buffer ([…], pH 8.0, 150 mM NaCl, 0.1% SDS, 0.5% sodium deoxycholate, 1% IGEPAL® CA-630 (Sigma, 18896) for 20 min at 4° C. in the presence of protease and phosphatase inhibitor cocktails (Roche, #04693159001 & #04906837001). Cell lysates were centrifuged at 13,200 g for 10 min at 4° C. and supernatants were analyzed for protein content using BCA assay (Pierce™ BCA Protein Assay Kit, cat #23227, ThermoFisher Waltham, Mass. 02451) and equal amounts of protein/lane were used for subsequent immunoblot analyses. Proteins were denatured by adding NuPAGE LSD Sample Buffer [4×] […]
Background: In western blotting, separated proteins are transferred to a membrane and probed.

Structures are written as SMILES.

On to `CC(C)NCCOc1ncc(-c2cc3c4c(cnc3cc2F)N(C)C(=O)C42CCC2)cc1NS(C)(=O)=O` [Compound 569, N-(5-(7′-Fluoro-3′-methyl-2′-oxo-2′,3′-dihydrospiro[cyclobutane-1,1′-pyrrolo[2,3-c]quinolin]-8′-yl)-2-(2-(isopropylamino)ethoxy)pyridin-3-yl)methanesulfonamide], for which the “inhibition of radiation-induced phosphorylation of DNA-PKcs Ser2056, ATM Ser1981 and KAP1 ser824” value is reported as “potent dose-dependent inhibition”.
